Reference: ChEMBL document CHEMBL4825745, “Novel Substituted Piperidine-2,6-dione Derivatives for Treating Sickle Cell Disease and β-Thalassemia” (ACS Med Chem Lett, 2021)
Blank lines part the entries; values can stand above or below the compound they belong to.

Target: Protein Wiz (Homo sapiens, UniProt O95785)
Assay: Induction of HiBit-tagged WIZ protein degradation expressed in HEK293T cells assessed as reduction in WIZ protein level incubated for 18 hrs by luminescence based assay
Type: cell-based

Sequence of Protein Wiz (O95785 whole entry): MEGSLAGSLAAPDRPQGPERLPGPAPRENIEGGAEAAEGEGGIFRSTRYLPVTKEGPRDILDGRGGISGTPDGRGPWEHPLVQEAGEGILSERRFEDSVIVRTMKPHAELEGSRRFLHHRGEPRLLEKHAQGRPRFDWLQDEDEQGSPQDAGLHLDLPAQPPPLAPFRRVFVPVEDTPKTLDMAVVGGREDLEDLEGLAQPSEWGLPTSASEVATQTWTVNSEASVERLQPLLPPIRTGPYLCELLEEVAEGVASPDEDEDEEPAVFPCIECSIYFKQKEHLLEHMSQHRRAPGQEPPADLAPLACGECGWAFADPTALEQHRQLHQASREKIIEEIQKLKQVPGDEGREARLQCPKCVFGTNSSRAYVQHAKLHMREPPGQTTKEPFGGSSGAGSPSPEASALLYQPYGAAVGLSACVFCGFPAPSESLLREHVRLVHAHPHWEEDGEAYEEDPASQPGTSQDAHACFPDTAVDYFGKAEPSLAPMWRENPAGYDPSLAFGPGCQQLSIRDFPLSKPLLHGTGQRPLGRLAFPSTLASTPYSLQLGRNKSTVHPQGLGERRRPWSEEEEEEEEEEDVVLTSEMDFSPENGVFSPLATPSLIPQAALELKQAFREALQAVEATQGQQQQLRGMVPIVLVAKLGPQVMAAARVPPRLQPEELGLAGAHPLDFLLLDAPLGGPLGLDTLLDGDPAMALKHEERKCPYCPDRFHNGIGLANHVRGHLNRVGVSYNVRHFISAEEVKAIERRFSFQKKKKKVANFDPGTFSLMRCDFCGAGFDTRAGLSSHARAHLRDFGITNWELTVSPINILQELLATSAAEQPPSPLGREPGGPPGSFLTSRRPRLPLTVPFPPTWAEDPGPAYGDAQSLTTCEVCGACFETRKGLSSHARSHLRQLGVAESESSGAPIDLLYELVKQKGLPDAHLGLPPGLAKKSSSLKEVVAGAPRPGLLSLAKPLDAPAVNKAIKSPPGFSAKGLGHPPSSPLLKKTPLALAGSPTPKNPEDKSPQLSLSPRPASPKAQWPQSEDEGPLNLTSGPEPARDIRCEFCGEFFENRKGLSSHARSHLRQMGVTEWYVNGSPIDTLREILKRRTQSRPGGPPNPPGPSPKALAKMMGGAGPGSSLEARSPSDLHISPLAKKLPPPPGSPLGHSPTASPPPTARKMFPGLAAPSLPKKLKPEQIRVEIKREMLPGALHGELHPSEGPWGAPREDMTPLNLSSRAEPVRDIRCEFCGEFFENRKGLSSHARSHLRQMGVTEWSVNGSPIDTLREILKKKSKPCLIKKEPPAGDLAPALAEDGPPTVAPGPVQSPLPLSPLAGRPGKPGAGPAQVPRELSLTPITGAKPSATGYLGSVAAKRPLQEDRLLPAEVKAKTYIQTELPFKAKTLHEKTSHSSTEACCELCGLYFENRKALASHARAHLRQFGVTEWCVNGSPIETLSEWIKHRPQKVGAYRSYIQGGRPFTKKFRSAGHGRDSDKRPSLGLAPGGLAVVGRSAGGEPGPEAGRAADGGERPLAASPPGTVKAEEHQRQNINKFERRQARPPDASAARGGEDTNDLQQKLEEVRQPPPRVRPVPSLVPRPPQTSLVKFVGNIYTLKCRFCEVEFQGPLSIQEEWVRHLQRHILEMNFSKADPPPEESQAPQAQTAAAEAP

SMILES: O=C1CCC(N2Cc3cc(OC[C@H]4CCCCN4Cc4ccc(N5CCCCC5)cc4)ccc3C2=O)C(=O)N1 (stereo partly specified)
- AC50: 0.37 nM

SMILES: O=C1CCC(N2Cc3cc(OC[C@H]4CCCCN4Cc4ccc(C5=CCOCC5)cc4)ccc3C2=O)C(=O)N1 (stereo partly specified)
- AC50: 0.35 nM

SMILES: O=C1CCC(N2Cc3cc(OC[C@H]4CCCCN4Cc4ccc5c(c4)OC(F)(F)O5)ccc3C2=O)C(=O)N1 (stereo partly specified)
- AC50: 0.47 nM

Next, values leading:

- AC50: 0.22 nM
SMILES: O=C1CCC(N2Cc3cc(OC[C@H]4CCCCN4Cc4ccc(C5(C(F)(F)F)CC5)cc4)ccc3C2=O)C(=O)N1 (stereo partly specified)

- AC50: 0.083 nM
SMILES: CC(C)(C)c1ccc(CN2CCCC[C@@H]2COc2ccc3c(c2)CN(C2CCC(=O)NC2=O)C3=O)cc1 (stereo partly specified)

- AC50: 0.52 nM
SMILES: COc1ccc(CN2CCCC[C@@H]2COc2ccc3c(c2)CN(C2CCC(=O)NC2=O)C3=O)c(OC)c1 (stereo partly specified)
